Experimental findings from US20140329682A1, “METHOD OF CONTROLLING WEED IN A SUGAR CANE FIELD” (SUMITOMO CHEMICAL COMPANY, LIMITED, priority 2011, published 2014) are described below.

The subject of data set [1] is Amaranthus retroflexus. Kind of data set: Herbicidal activity, soil surface spray after planting (Example 4). The class given is in vivo. The following applies: 3 cm stem cutting, one node, soil surface spray on date of planting, four weeks after treatment.
Data set [2] deals with Amaranthus retroflexus. Briefly: Herbicidal activity, spray above weed before planting, strobilurin-treated stem cutting (Example 9). The data set is classed as in vivo. The following applies: sprayed above weed, 3 cm stem cutting treated with kresoxim-methyl, azoxystrobin or another listed strobilurin fungicide planted one week after treatment, four weeks after treatment.
Procedure: A soil is packed into a plastic pot, and seeds of Amaranthus retroflexus are seeded thereon. Thereafter, the pot is placed in a greenhouse, and the weed is grown.
Data set [3] concerns sugar cane. Kind of data set: Phytotoxicity on sugar cane, soil surface spray, strobilurin-treated stem cutting (Example 8). An excerpt: (§1) The “phytotoxicity” evaluated herein is the damage characteristic determined to be due to a treated compound, and is clearly discriminated from the damage characteristic caused by a harmful animal or plant disease.
A 30 cm to 40 cm stem cutting of sugar cane is placed on a wet soil, and germination is stimulated. The stem cutting from which a bud has grown to about 1 cm is selected, and the length of the stem cutting is adjusted to be 3 cm so that the stem cutting has one node. Kresoxim-methyl, azoxystrobin, trifloxystrobin, fluoxastrobin, picoxystrobin, pyraclostrobin, dimoxystrobin, pyribencarb, metominostrobin, orysastrobin, enestrobin, pyraoxystrobin or pyrametostrobin is adhered to the stem cutting. A soil is packed into a plastic pot, and seeds of Amaranthus retroflexus are seeded thereon. The stem cutting of sugar cane treated with kresoxim-methyl, azoxystrobin, trifloxystrobin, fluoxastrobin, picoxystrobin, pyraclostrobin, dimoxystrobin, pyribencarb, metominostrobin, orysastrobin, enestrobin, pyraoxystrobin or pyrametostrobin is planted in the soil packed into the pot at a depth of 2 cm. […] Thereafter, the pot for a test is placed in a greenhouse.

The subject of data set [4] is sugar cane. Briefly: Phytotoxicity on sugar cane, soil surface spray, metalaxyl-treated stem cutting (Example 12).
Source text: as §1
A 30 cm to 40 cm stem cutting of sugar cane is placed on a wet soil, and germination is stimulated. The stem cutting from which a bud has grown to about 1 cm is selected, and the length of the stem cutting is adjusted to be 3 cm so that the stem cutting has one node. Metalaxyl or metalaxyl-M is adhered to the stem cutting. A soil is packed into a plastic pot. Seeds of Amaranthus retroflexus are seeded thereon. The stem cutting of sugar cane treated with metalaxyl or metalaxyl-M is planted in the soil packed into the pot at a depth of 2 cm. […] Thereafter, the pot for a test is placed in a greenhouse.

The test system of data set [5] is sugar cane. Briefly: Phytotoxicity on sugar cane, soil surface spray after planting (Example 4).
Source text: as §1
A 30 cm to 40 cm stem cutting of sugar cane is placed on a wet soil, and germination is stimulated. The stem cutting from which a bud has grown to about 1 cm is selected, and the length of the stem cutting is adjusted to be 3 cm so that the stem cutting has one node. A soil is packed into a plastic pot, and seeds of Amaranthus retroflexus are seeded thereon. The stem cutting of sugar cane is planted in the soil packed in the pot at a depth of 2 cm. […] Thereafter, the pot for a test is placed in a greenhouse.

For data set [6], the system named is Amaranthus retroflexus. Briefly: Herbicidal activity, soil surface spray, azole-fungicide-treated stem cutting (Example 10). The following applies: 3 cm stem cutting treated with azaconazole, bitertanol or another listed azole-type fungicide, four weeks after treatment. The data set is classed as in vivo.
Source text: A 30 to 40 cm stem cutting of sugar cane is placed on a wet soil, and germination is stimulated. The stem cutting from which a bud has grown to about 1 cm is selected, and the length of the stem cutting is adjusted to be 3 cm so that the stem cutting has one node. Azaconazole, bitertanol, bromoconazole, cyproconazole, difenoconazole, diniconazole, epoxyconazole, fenbuconazole, fluquinconazole, flusilazole, flutriafol, hexaconazole, imibenconazole, ipconazole, metconazole, myclobutanil, penconazole, propiconazole, prothioconazole, simeconazole, tebuconazole, tetraconazole, triadimenol, triticonazole, fenarimol, nuarimol, pyrifenox, imazalil, oxpoconazole fumarate, pefurazoate, procloraz or triflumizole is adhered to the stem cutting. A soil is packed into a plastic pot, and seeds of Amaranthus retroflexus are seeded thereon. The stem cutting of sugar cane treated with azaconazole, bitertanol, bromoconazole, cyproconazole, difenoconazole, diniconazole, epoxyconazole, fenbuconazole, fluquinconazole, flusilazole, flutriafol, hexaconazole, imibenconazole, ipconazole, metconazole, myclobutanil, penconazole, propiconazole, prothioconazole, simeconazole, tebuconazole, tetraconazole, triadimenol, triticonazole, fenarimol, nuarimol, pyrifenox, imazalil, oxpoconazole fumarate, pefurazoate, procloraz or triflumizole is planted in the soil packed into the pot at a depth of 2 cm. […] Thereafter, the pot for a test is placed in a greenhouse.
For data set [7], the system named is sugar cane. Kind of data set: Phytotoxicity on sugar cane, spray above weed before planting, metalaxyl-treated stem cutting (Example 13). On the procedure: as §1
A soil is packed into a plastic pot, and seeds of Amaranthus retroflexus are seeded thereon. Thereafter, a pot is placed in a greenhouse, and the weed is grown.
A 30 cm to 40 cm stem cutting of sugar cane is placed on a wet soil, and germination is stimulated. The stem cutting from which a bud has grown to about 1 cm is selected, and the length of the stem cutting is adjusted to be 3 cm so that the stem cutting has one node. Metalaxyl or metalaxyl-M is adhered to the stem cutting.
The pot for a test is placed in a greenhouse.

Data set [8] relates to Amaranthus retroflexus. Kind of data set: Herbicidal activity, soil surface spray on day of planting (Example 1). The following applies: four weeks after treatment, scale 0 to 100. The class given is in vivo. On the procedure:
The stem cutting from which a bud had grown to about 1 cm was selected, and the length of the stem cutting was adjusted to be 3 cm, 15 cm or 25 cm. The stem cutting of 3 cm or 15 cm had only one node, and the stem cutting of 25 cm had two nodes. A soil was packed into a 32 cm×25 cm×11 cm plastic pot, and seeds of Amaranthus retroflexus were seeded thereon. […] On the date when the stem cutting was planted, and after planting of the stem cutting, a water-diluted liquid of a flumioxazin water dispersible granule (water dispersible granule containing 51% floumioxazin, trade name: Valor SX, manufactured by Valent USA Corporation) (100 ppm or 250 ppm) was uniformly sprayed on the soil surface with a sprayer at an amount described in Table 1. Thereafter, the pot for a test was placed in a greenhouse. Four weeks after treatment with flumioxazin, phytotoxicity on sugar cane and the herbicidal activity against Amaranthus retroflexus were determined.

Data set [9] concerns sugar cane. Kind of data set: Phytotoxicity on sugar cane, spray from upper side of pot, sugar cane at 4 to 5 leaves (Example 3). The class given is in vivo. The following applies: 70 g (active ingredient)/ha, one week after treatment, scale 0 to 100. Here is the method: (§2) A sugar cane, a foliage of which had grown to about 4 to 5 leaves, was selected, and the length of the stem cutting was adjusted to be 8 cm or 25 cm. The 8 cm stem cutting had one node, and the 25 cm stem cutting had two nodes. A soil was packed into a 32 cm×25 cm×11 cm plastic pot, and seeds of Amaranthus retroflexus were seeded thereon. […] On the date when the stem cutting was planted, and after planting of the stem cutting, a water-diluted liquid of saflufenacil (140 ppm) was uniformly sprayed with a sprayer from an upper side of the pot at an amount described in Table 3. The water-diluted liquid of saflufenacil was prepared by dissolving a predetermined amount of saflufenacil in acetone containing 2% (w/v) Tween 20, and diluting this solution with water so that the acetone concentration became 10% by volume. Thereafter, the pot for a test was placed in a greenhouse. One week after treatment with saflufenacil, phytotoxicity on sugar cane was determined and, four weeks after treatment with saflufenacil, the herbicidal activity against Amaranthus retroflexus was determined.

In data set [10] the test system is Amaranthus retroflexus. Kind of data set: Herbicidal activity, spray from upper side of pot, sugar cane at 4 to 5 leaves (Example 3). The class given is in vivo. The following applies: 70 g (active ingredient)/ha, four weeks after treatment, scale 0 to 100. Here is the method: as §2
The mark [11] stands for this setting: Example 8, 3 cm stem cutting treated with kresoxim-methyl, azoxystrobin or another listed strobilurin fungicide, soil surface spray, four weeks after treatment.
The mark [12] stands for this setting: Example 12, 3 cm stem cutting treated with metalaxyl or metalaxyl-M, soil surface spray, four weeks after treatment.
Where [13] appears, read: Example 13, sprayed above weed, 3 cm stem cutting treated with metalaxyl or metalaxyl-M planted one week after treatment, four weeks after treatment.
Where [14] appears, read: Example 4, 3 cm stem cutting, one node, soil surface spray on date of planting, four weeks after treatment.

Molecules are shown by their SMILES.

In the case of `Cc1nn(-c2cc(NS(C)(=O)=O)c(Cl)cc2Cl)c(=O)n1C(F)F` [sulfentrazone], the entries for the “herbicidal activity against Amaranthus retroflexus” value in data set [1], in data set [2] and in data set [6] were “the controlling effect on a weed can be confirmed”, “the controlling effect on a weed can be confirmed” and “the control effect on a weed can be confirmed”, respectively. In addition, the phytotoxicity result in [3] (in vivo), in data set [4] (in vivo), in data set [5] (in vivo) and in data set [7] (in vivo) was “significant phytotoxicity on sugar cane is not observed” in each case.
Regarding `C#CCN1C(=O)COc2cc(F)c(N3C(=O)C4=C(CCCC4)C3=O)cc21` [Flumioxazin, flumioxazin], the “herbicidal activity against Amaranthus retroflexus” value in data set [2] is on record as “the controlling effect on a weed can be confirmed”; in [6] it was “the control effect on a weed can be confirmed”. For the same compound, the phytotoxicity result in [3] (setting [11]), in data set [4] (setting [12]) and in data set [7] (setting [13]) was “significant phytotoxicity on sugar cane is not observed” throughout. In addition, the Herbicidal activity in [8] (50 g (active ingredient)/ha, stem cutting 3 cm) came out at 100; in data set [8] (50 g (active ingredient)/ha, stem cutting 15 cm), 100; in [8] (50 g (active ingredient)/ha, stem cutting 25 cm), 100; in data set [8] (125 g (active ingredient)/ha, stem cutting 3 cm) it was 100; in [8] (125 g (active ingredient)/ha, stem cutting 15 cm), 100; in [8] (125 g (active ingredient)/ha, stem cutting 25 cm), 100.
As for `CC(C)Oc1cc(-n2nc(C(C)(C)C)oc2=O)c(Cl)cc1Cl` [oxadiazon], the “herbicidal activity against Amaranthus retroflexus” value was “the controlling effect on a weed can be confirmed” in [1], “the controlling effect on a weed can be confirmed” in data set [2] and “the control effect on a weed can be confirmed” in [6]. Also, the phytotoxicity result in [3] (in vivo), in [4] (in vivo), in [5] (in vivo) and in [7] (in vivo) was “significant phytotoxicity on sugar cane is not observed” in each case.
For the compound `CC(C)N(C)S(=O)(=O)NC(=O)c1cc(-n2c(=O)cc(C(F)(F)F)n(C)c2=O)c(F)cc1Cl` [Saflufenacil, saflufenacil], the “Phytotoxicity on sugar cane” value in [9] (stem cutting 8 cm (one node)) was 0; in data set [9] (stem cutting 25 cm (two nodes)), 15. The Herbicidal activity in data set [10] (stem cutting 8 cm) and in data set [10] (stem cutting 25 cm) was 100 in each case. The “herbicidal activity against Amaranthus retroflexus” value in data set [1] is “the controlling effect on a weed can be confirmed”; in [2] it was “the controlling effect on a weed can be confirmed”; in [6] it was “the control effect on a weed can be confirmed”. In addition, the phytotoxicity entry in data set [3] (setting [11]), in data set [4] (setting [12]), in data set [5] (setting [14]) and in [7] (setting [13]) was “significant phytotoxicity on sugar cane is not observed” each time.
With `CCOc1cc(Oc2ccc(C(F)(F)F)cc2Cl)ccc1[N+](=O)[O-]` [oxyfluorfen], the figures for the “herbicidal activity against Amaranthus retroflexus” value in [1], in data set [2] and in [6] were “the controlling effect on a weed can be confirmed”, “the controlling effect on a weed can be confirmed” and “the control effect on a weed can be confirmed”, respectively. The phytotoxicity result in data set [3] (setting [11]), in [4] (setting [12]), in data set [5] (setting [14]) and in [7] (setting [13]) was “significant phytotoxicity on sugar cane is not observed” in each case.
Take `C#CCN1C(=O)COc2cc(F)c(-n3c(=O)n(C)c(=S)n(C)c3=O)cc21` [compound of the formula (I)]: the “herbicidal activity against Amaranthus retroflexus” value in data set [1] was “the controlling effect on a weed can be confirmed”; in data set [2], “the controlling effect on a weed can be confirmed”; in data set [6], “the control effect on a weed can be confirmed”. Besides, the phytotoxicity result in [3] (setting [11]), in data set [4] (in vivo), in data set [5] (in vivo) and in data set [7] (in vivo) was “significant phytotoxicity on sugar cane is not observed” in each case.
